Laboratory results: patent US20080262228A1, “Metabolites of 5-fluoro-8- quinoline and methods of preparation and uses thereof” (Wyeth, priority 2006, published 2008)
Where “and” joins values, the source holds several entries; their conditions need not be identical. Equal entries are not always repeated.

Assay: In vivo metabolism and excretion of [14C]COMPOUND I in male beagle dogs, single oral 3 mg/kg dose
Parameters: species or system dog
Details: for Cumulative Percent Excretion of Radioactivity in Feces (includes cage rinse): mean ± SD (n = 4)
Method: Dose preparation, animal dosing, and specimen collection were performed at Wyeth Research, Collegeville, Pa. The vehicle contained 2% (w/v) polysorbate 80, NF and 0.5% (w/v) methylcellulose (4000 cps) in water. [^14C]COMPOUND I trisuccinate salt (50.25 mg) and non-labeled COMPOUND I trisuccinate salt (331.9 mg) were suspended in 72 mL of the vehicle by grinding with a mortar and a pestle. The target [^14C]COMPOUND I concentration was approximately 3 mg/mL as free base and 48 μCi/mL with a target specific activity of 16 μCi/mg. Three pre- and post-dose aliquots (100 μL) were taken for the determination of radiochemical purity, drug and radioactivity concentrations and specific activity (see below).
Four male beagle dogs, weighing from 9.4 to 11.5 kg at the time of dosing, were from an in-house colony. Non-fasted dogs were given a single 3 mg/kg (approximately 48 μCi/kg) dose of [^14C]COMPOUND I at a volume of 1 mL/kg via intragastric gavage. Animals were provided Purina dog chow and water ad libitum, and were housed individually in metabolic cages.
Blood samples were collected from the jugular vein at 1, 4, 8, 24, 48, 72 and 120 hr after dose administration into tubes containing potassium EDTA as the anticoagulant and then placed on ice. Aliquots of 200 μL were removed and plasma was harvested immediately from the remaining blood by centrifugation at 4° C. Urine samples were collected into tubes on dry ice from 0-24 and 24-48 hr, and then at ambient temperature at 24 hr intervals for 7 days post-dose. Fecal samples were collected at 24 hr intervals for 7 days post-dose at room temperature. Cage rinses were collected daily by rinsing each cage with approximately 500 mL of 30% ethanol in water. The dose aliquots and biological specimens were stored at approximately −70° C. until analysis.
Triplicate aliquots of diluted dose (20 μL), dose fractions (10 μL) and plasma (50 μL), urine (200 μL) and cage wash (500 μL) from individual dogs were analyzed for radioactivity content. The samples were assayed in a Tri-Carb Model 3100TR liquid scintillation counter (Perkin Elmer) using 5 mL of Ultima Gold scintillation cocktail.
Fecal samples from individual dogs were weighed and homogenized in water at a volume-to-weight ratio of about 4:1 with a Silverson sealed-unit homogenizer at ambient temperature. Triplicate aliquots of whole blood (50 μL) and fecal homogenates (approximately 0.2 g) were placed into Combusto-cones with Combusto-pads and allowed to dry overnight. Samples were combusted with a model 307 Tri-Carb Sample Oxidizer, equipped with an Oximate-80 Robotic Automatic Sampler (Perkin Elmer). The liberated ^14CO2 was trapped with Carbo-Sorb® E carbon dioxide absorber, mixed with PermaFluor® E+liquid scintillation cocktail, and counted in a Tri-Carb Model 3100 TR/LL liquid scintillation counter.
Plasma samples were pooled by mixing equal volumes from four animals at each time point (1, 4, 8 and 24 hr). Aliquots of 2.0 mL of pooled plasma were mixed with 2.0 mL of acetonitrile, placed on ice for about 10 min, and then centrifuged at 4° C. The supernatant was transferred to a clean tube. The protein pellets were extracted two more times with 2.0 mL of acetonitrile. The supernatants from precipitation and extraction of each sample were pooled, mixed, and evaporated at 22° C. under nitrogen in a TurboVap LV evaporator (Caliper Life Sciences, Hopkinton, Mass.) to about 0.8 mL. The concentrated extract was centrifuged, the supernatant volume measured and the extraction efficiency was determined by analyzing duplicate 10 μL aliquots for radioactivity concentrations. For metabolite profiling, an aliquot of the supernatant (200 μL) was injected onto the HPLC column as described hereinbelow, and fractions were collected at 20 second intervals into 96-well Lumaplates (Perkin Elmer).

[1] = 1 hr, 3 mg/kg oral, individual dogs, 3 mg/kg
[2] = 4 hr, 3 mg/kg oral, individual dogs, 3 mg/kg
[3] = 8 hr, 3 mg/kg oral, individual dogs, 3 mg/kg
[4] = 24 hr, 3 mg/kg oral, individual dogs, 3 mg/kg
[5] = 48 hr, 3 mg/kg oral, individual dogs, 3 mg/kg
[6] = 72 hr, 3 mg/kg oral, individual dogs, 3 mg/kg
[7] = 120 hr, 3 mg/kg oral, individual dogs, 3 mg/kg
[8] = 120 hr, 3 mg/kg oral, mean ± SD

Recovery of Radioactivity in Cage Rinse (Percent of Dose) (0-24 hr, 3 mg/kg oral, individual dogs, 3 mg/kg): 0.18% and 1.64% and 1.74% and 0.78%
Recovery of Radioactivity in Cage Rinse (Percent of Dose) (0-24 hr, 3 mg/kg oral, mean ± SD): 1.09 ± 0.74%
Recovery of Radioactivity in Cage Rinse (Cumulative Percent of Dose) (0-48 hr, 3 mg/kg oral, individual dogs, 3 mg/kg): 0.46% and 2.57% and 2.20% and 1.75%
Recovery of Radioactivity in Cage Rinse (Cumulative Percent of Dose) (0-48 hr, 3 mg/kg oral, mean ± SD): 1.75 ± 0.92%
Cumulative Percent Excretion of Radioactivity in Feces (includes cage rinse) (0-48 hr, 3 mg/kg oral, 3 mg/kg): 61.2% and 61.2 ± 14.1%
Recovery of Radioactivity in Cage Rinse (Cumulative Percent of Dose) (0-72 hr, 3 mg/kg oral, individual dogs, 3 mg/kg): 0.65% and 3.00% and 2.57% and 1.97%
Recovery of Radioactivity in Cage Rinse (Cumulative Percent of Dose) (0-72 hr, 3 mg/kg oral, mean ± SD): 2.05 ± 1.02%
Recovery of Radioactivity in Cage Rinse (Cumulative Percent of Dose) (0-96 hr, 3 mg/kg oral, individual dogs, 3 mg/kg): 0.72% and 3.27% and 2.66% and 2.05%
Recovery of Radioactivity in Cage Rinse (Cumulative Percent of Dose) (0-96 hr, 3 mg/kg oral, mean ± SD): 2.18 ± 1.09%
Recovery of Radioactivity in Cage Rinse (Cumulative Percent of Dose) (0-120 hr, 3 mg/kg oral, individual dogs, 3 mg/kg): 0.75% and 3.39% and 2.73% and 2.12%
Recovery of Radioactivity in Cage Rinse (Cumulative Percent of Dose) (0-120 hr, 3 mg/kg oral, mean ± SD): 2.25 ± 1.13%
Recovery of Radioactivity in Cage Rinse (Cumulative Percent of Dose) (0-144 hr, 3 mg/kg oral, individual dogs, 3 mg/kg): 0.79% and 3.49% and 2.77% and 2.17%
Recovery of Radioactivity in Cage Rinse (Cumulative Percent of Dose) (0-144 hr, 3 mg/kg oral, mean ± SD): 2.31 ± 1.15%
Recovery of Radioactivity in Cage Rinse (Cumulative Percent of Dose) (0-168 hr, 3 mg/kg oral, individual dogs, 3 mg/kg): 0.84% and 3.58% and 2.83% and 2.20%
Recovery of Radioactivity in Cage Rinse (Cumulative Percent of Dose) (0-168 hr, 3 mg/kg oral, mean ± SD): 2.36 ± 1.16%
Cumulative Percent Excretion of Radioactivity in Feces (includes cage rinse) (0-168 hr, 3 mg/kg oral, 3 mg/kg): 72.8% and 72.8 ± 3.28%
dose excreted in urine (3 mg/kg oral): less than 7%
Recovery of Radioactivity in Cage Rinse (Percent of Dose) (24-48 hr, 3 mg/kg oral, individual dogs, 3 mg/kg): 0.28% and 0.93% and 0.46% and 0.97%
Recovery of Radioactivity in Cage Rinse (Percent of Dose) (24-48 hr, 3 mg/kg oral, mean ± SD): 0.66 ± 0.34%
Recovery of Radioactivity in Cage Rinse (Percent of Dose) (48-72 hr, 3 mg/kg oral, individual dogs, 3 mg/kg): 0.19% and 0.43% and 0.37% and 0.22%
Recovery of Radioactivity in Cage Rinse (Percent of Dose) (48-72 hr, 3 mg/kg oral, mean ± SD): 0.30 ± 0.12%
Recovery of Radioactivity in Cage Rinse (Percent of Dose) (72-96 hr, 3 mg/kg oral, individual dogs, 3 mg/kg): 0.07% and 0.27% and 0.09% and 0.08%
Recovery of Radioactivity in Cage Rinse (Percent of Dose) (72-96 hr, 3 mg/kg oral, mean ± SD): 0.13 ± 0.10%
Recovery of Radioactivity in Cage Rinse (Percent of Dose) (96-120 hr, 3 mg/kg oral, individual dogs, 3 mg/kg): 0.03% and 0.12% and 0.07% (2×)
Recovery of Radioactivity in Cage Rinse (Percent of Dose) (96-120 hr, 3 mg/kg oral, mean ± SD): 0.07 ± 0.04%
Recovery of Radioactivity in Cage Rinse (Percent of Dose) (120-144 hr, 3 mg/kg oral, individual dogs, 3 mg/kg): 0.04% (2×) and 0.10% and 0.05%
Recovery of Radioactivity in Cage Rinse (Percent of Dose) (120-144 hr, 3 mg/kg oral, mean ± SD): 0.06 ± 0.03%
Recovery of Radioactivity in Cage Rinse (Percent of Dose) (144-168 hr, 3 mg/kg oral, individual dogs, 3 mg/kg): 0.05% and 0.09% and 0.06% and 0.03%
Recovery of Radioactivity in Cage Rinse (Percent of Dose) (144-168 hr, 3 mg/kg oral, mean ± SD): 0.06 ± 0.03%
Concentration of Total Radioactivity in Whole Blood (1 hr, 3 mg/kg oral, mean ± SD): 333 ± 66.3 ng equivalents/mL
Concentration of Total Radioactivity in Plasma (1 hr, 3 mg/kg oral, mean ± SD, 3 mg/kg): 424±66.1 ng equivalents/mL
Concentration of Total Radioactivity in Plasma (4 hr, 3 mg/kg oral, mean ± SD): 225 ± 72.2 ng equivalents/mL
Concentration of Total Radioactivity in Whole Blood (4 hr, 3 mg/kg oral, mean ± SD): 203 ± 59.0 ng equivalents/mL
Concentration of Total Radioactivity in Plasma (8 hr, 3 mg/kg oral, mean ± SD): 132 ± 29.2 ng equivalents/mL
Concentration of Total Radioactivity in Whole Blood (8 hr, 3 mg/kg oral, mean ± SD): 128 ± 27.2 ng equivalents/mL
Concentration of Total Radioactivity in Whole Blood (24 hr, 3 mg/kg oral, mean ± SD): 71.5 ± 24.8 ng equivalents/mL
Concentration of Total Radioactivity in Plasma (24 hr, 3 mg/kg oral, mean ± SD, 3 mg/kg): 90.8±45.9 ng equivalents/mL
Concentration of Total Radioactivity in Plasma (48 hr, 3 mg/kg oral, mean ± SD): 38.2 ± 15.1 ng equivalents/mL
Concentration of Total Radioactivity in Whole Blood (48 hr, 3 mg/kg oral, mean ± SD): 33.9 ± 9.44 ng equivalents/mL
Concentration of Total Radioactivity in Plasma (72 hr, 3 mg/kg oral, mean ± SD): 37.9 ± 25.6 ng equivalents/mL
Concentration of Total Radioactivity in Whole Blood (72 hr, 3 mg/kg oral, mean ± SD): 24.1 ± 6.14 ng equivalents/mL
Concentration of Total Radioactivity in Plasma [8]: 45.7 ± 0.78 ng equivalents/mL
Concentration of Total Radioactivity in Whole Blood [8]: 19.3 ± 3.26 ng equivalents/mL
administered dose excreted after the completion of the study (estimated from radioactivity in urine collected for several additional weeks): about 5%
Compound: COc1cc(N2CCN(C3CCN(c4ccc(F)c5cccnc45)CC3)CC2)c2ncccc2c1 [[^14C]COMPOUND I, [piperazine-^14C(U)]-5-fluoro-8-(4-(4-(6-methoxyquinolin-8-yl)piperazin-1-yl)piperidin-1-yl)quinoline trisuccinate]
Concentration of Total Radioactivity in Plasma [1]: 336 ng equivalents/mL and 426 ng equivalents/mL and 496 ng equivalents/mL and 437 ng equivalents/mL
Concentration of Total Radioactivity in Whole Blood [1]: 270 ng equivalents/mL and 284 ng equivalents/mL and 404 ng equivalents/mL and 375 ng equivalents/mL
Concentration of Total Radioactivity in Plasma [2]: 166 ng equivalents/mL and 228 ng equivalents/mL and 326 ng equivalents/mL and 181 ng equivalents/mL
Concentration of Total Radioactivity in Whole Blood [2]: 138 ng equivalents/mL and 201 ng equivalents/mL and 191 ng equivalents/mL and 281 ng equivalents/mL
Concentration of Total Radioactivity in Plasma [3]: 102 ng equivalents/mL and 135 ng equivalents/mL and 171 ng equivalents/mL and 121 ng equivalents/mL
Concentration of Total Radioactivity in Whole Blood [3]: 93.5 ng equivalents/mL and 131 ng equivalents/mL and 160 ng equivalents/mL and 126 ng equivalents/mL
Concentration of Total Radioactivity in Plasma [4]: 49.1 ng equivalents/mL and 69.3 ng equivalents/mL and 155 ng equivalents/mL and 89.7 ng equivalents/mL
Concentration of Total Radioactivity in Whole Blood [4]: 41.2 ng equivalents/mL and 63.3 ng equivalents/mL and 98.5 ng equivalents/mL and 82.9 ng equivalents/mL
Concentration of Total Radioactivity in Plasma [5]: 25.5 ng equivalents/mL and 28.2 ng equivalents/mL and 58.5 ng equivalents/mL and 40.7 ng equivalents/mL
Concentration of Total Radioactivity in Whole Blood [5]: 22.2 ng equivalents/mL and 30.2 ng equivalents/mL and 40.8 ng equivalents/mL and 42.2 ng equivalents/mL
Concentration of Total Radioactivity in Plasma [6]: 17.6 ng equivalents/mL and 21.4 ng equivalents/mL and 73.6 ng equivalents/mL and 39.0 ng equivalents/mL
Concentration of Total Radioactivity in Whole Blood [6]: 16.8 ng equivalents/mL and 22.6 ng equivalents/mL and 25.2 ng equivalents/mL and 31.6 ng equivalents/mL
Concentration of Total Radioactivity in Plasma [7]: 45.1 ng equivalents/mL (2×) and 46.0 ng equivalents/mL and 46.7 ng equivalents/mL
Concentration of Total Radioactivity in Whole Blood [7]: 16.6 ng equivalents/mL and 18.4 ng equivalents/mL and 18.0 ng equivalents/mL and 24.0 ng equivalents/mL
